Four molecules from patent publication US9512167B2, “Optimized synthesis of pure, non-polymorphic, crystalline bile acids with defined particle size” (Dr. Falk Pharma GmbH, priority 2010, dated 2016) can be followed below.

Common to all, as to type: physicochemical
A short description of data set [1]: Qualitative solubility determination of Nor-UDCA with 20 solvents. Conditions: thermodynamic from solid. The procedure:
(§1) The polymorph screening study was carried out in two phases. In Phase 1, the synthesized Nor-UDCA, designated Form A, was characterised by XRPD, digital imaging, thermal analysis (DSC and TGMS). The purity of the material was checked by HPLC/RI. A qualitative solubility determination with 20 solvents was carried out in order to fit the data for the selection of the crystallization solvents to be employed in the polymorph screen. Additionally, the solids recovered by evaporation of solutions used in the solubility experiments were analyzed by XRPD and digital imaging to obtain information on the potential form formation of new forms of Nor-UDCA (see Table 2). Grinding tests were conducted in order to support the definition of the experimental space for this crystallization mode. Amorphous material to be used as starting material was intentionally produced by freeze-drying from 1,4-dioxane/water (95/5%) solution and by grinding (ball-milling) for “cooling/evaporation and vapour diffusion into solids experiments”. In Phase 2, 217 experiments divided across different crystallization modes were performed. The applied crystallization modes were: • Combined cooling/evaporative crystallization experiments starting with amorphous material • Crystallization with forward anti-solvent addition • Slurry experiments at two temperatures • Vapour diffusion into solutions • Vapour diffusion onto amorphous solids • Crystallization by grinding with 24 solvents and one dry.

The nature of data set [2]: Polymorph screen: relative stability of forms by XRPD re-analysis after storage. Conditions: for Stability by XRPD (form found on XRPD re-analysis after storage): storage at ambient conditions. The procedure: as §1
Upon completion of the experiments, XRPD and digital images analyses were performed on all crystallized solids.

The nature of data set [3]: Particle size determination by laser diffraction. The note with it: dry method, Malvern. The source says:
The particle size distribution can be determined as described herein in Example 3 and/or according the European Pharmacopeia (Ph. Eur.), edition 6.8. section 2.9.31, preferably with a Mastersizer 2000 by Malvern instruments. The evaluation is typically carried out by the Fraunhofer model.
The precipitation of the free acid leads to Nor-UDCA particles of a consistent and defined size distribution. Micronization by milling in order to control the crystal size of Nor-UDCA can be avoided.

Data set [4] can be described thus: Particle size analysis of crystals by microscopy (Reference Example). The protocol:
Various properties of Nor-UDCA synthesized according to Schteingart and Hofmann (1988) Journal of Lipid Research Vol. 29(10), […] were investigated.
The particle size of the crystals obtained was analyzed by microscopy. […] This particle size distribution is not suitable for the intended pharmaceutical preparation. Milling/micronization is not desired as this would result in a reduction of the polymorphic purity and/or of the thermodynamic stability of the Nor-UDCA.

Converted amounts (≈) assume the structure as drawn.

As usually defined, the solubility is the dissolved amount per volume that the medium holds. Regarding `CC(CC(=O)O)[C@H]1CCC2[C@H]3C(CC[C@@]21C)[C@@]1(C)CCC(O)C[C@H]1C[C@@H]3O` (stereo partly drawn) [Nor-UDCA, 3α,7β-dihydroxy-24-nor-5β-cholan-23oic acid], the solubility in data set [1] (dichloromethane, organic solvent or mixture, solvent Dichlormethane) is under 13 mg/mL; in data set [1] (organic solvent or mixture, solvent 1,2-Dimethoxyethane) it was under 14 mg/mL; in data set [1] (organic solvent or mixture, solvent 1,2-Ethanediol), under 14 mg/mL; in data set [1] (organic solvent or mixture, solvent 1,4-Dioxane), 21 mg/mL (≈ 55.5 mM); in data set [1] (organic solvent or mixture, solvent 2,2,2-Trifluoroethanol), 21 mg/mL (≈ 55.5 mM); in data set [1] (organic solvent or mixture, solvent 2-Butanone), under 14 mg/mL. Moreover, the solubility was under 14 mg/mL in data set [1] (organic solvent or mixture, solvent Acetone); under 13 mg/mL in data set [1] (organic solvent or mixture, solvent Acetonitrile); under 14 mg/mL in data set [1] (organic solvent or mixture, solvent Chloroform); under 14 mg/mL in data set [1] (organic solvent or mixture, solvent Cyclohexane); 207 mg/mL (≈ 547 mM) in data set [1] (organic solvent or mixture, solvent Dimethylsulfoxide); 70 mg/mL (≈ 185 mM) in data set [1] (organic solvent or mixture, solvent Methanol). Moreover, the solubility in data set [1] (organic solvent or mixture, solvent N-Methyl-2-pyrrolidone) is 404 mg/mL (≈ 1070 mM); in data set [1] (organic solvent or mixture, solvent Nitrobenzene), under 13 mg/mL; in data set [1] (organic solvent or mixture, solvent Nitromethane), under 13 mg/mL; in data set [1] (organic solvent or mixture, solvent Pentane) it was under 13 mg/mL; in data set [1] (organic solvent or mixture, solvent Toluene), under 12 mg/mL; in data set [1] (tert-butyl methyl ether, organic solvent or mixture, solvent Tert-butylmethylether), under 13 mg/mL. Further, the solubility was 41 mg/mL (≈ 108 mM) in data set [1] (tetrahydrofuran, organic solvent or mixture, solvent Tetrhydrofurane) and under 12 mg/mL in data set [1] (solvent Water). Also, the “Thermodynamic stability of the crystalline form” value in data set [2] (polymorph screening study) is “thermodynamically stable”. Moreover, in data set [2], the “Stability by XRPD (form found on XRPD re-analysis after storage)” value is on record as “Form A”. In addition, the “Particle size D(v, 0.5)” value in data set [3] (listed as Batch 40019721) worked out at 6.4 μm; in data set [3] (listed as Batch 40019898), 5.4 μm; in data set [3] (listed as Batch 40019902), 6.7 μm.
Regarding `C[C@H](CC(=O)O)[C@H]1CC[C@H]2[C@@H]3[C@@H](O)C[C@@H]4C[C@H](O)CC[C@]4(C)[C@H]3CC[C@]12C` [Form B], the “Time to conversion to Form A (XRPD re-analysis)” value in data set [2] (stored at ambient conditions in well and experimental vial) is reported as at most 10 days.
Turning to `C[C@H](CC(=O)O)[C@H]1CC[C@H]2[C@@H]3[C@@H](O)C[C@@H]4C[C@H](O)CC[C@]4(C)[C@H]3CC[C@]12C` [Form C2], the “Stability by XRPD (form found on XRPD re-analysis after storage)” value in data set [2] was “Form A”.
In the case of `C[C@H](CC(=O)O)[C@H]1CC[C@H]2[C@@H]3[C@@H](O)C[C@@H]4C[C@H](O)CC[C@]4(C)[C@H]3CC[C@]12C`, in data set [4], the “Median particle size (50% of the crystals this size or less)” value stood at 13.37 μm, the “Particle size that 60% of the crystals have or less” value was found to be 15.64 μm, the “Particle size that 95% of the particles have or less” value worked out at 46.64 μm and the “Share of particles with a particle size of 10 μm or less” value was “Less than 30%”.
